Experimental data reported in patent publication US11098032B2, “Pyran dervatives as CYP11A1 (cytochrome P450 monooxygenase 11A1) inhibitors” (ORION CORPORATION, priority 2016, dated 2021).

target: T1, CYP11A1 (Homo sapiens, UniProt P05108); test: CYP11A1 inhibition: modified isocaproic acid release assay (IARA) in H295R cells; format: cell-based; conditions: human H295R adrenocortical carcinoma cells treated three days, 3 nM [24,25-3H]-labelled cholesterol, 1% DMSO, 10 concentrations in duplicates; read-out: IC50 of the test compounds on CYP11A1 inhibition
T1 construct: human H295R adrenocortical carcinoma cell line was used as source of enzyme; endogenous in cells; host or cells: H295R human adrenocortical carcinoma cells
T1 sequence (P05108 40-521): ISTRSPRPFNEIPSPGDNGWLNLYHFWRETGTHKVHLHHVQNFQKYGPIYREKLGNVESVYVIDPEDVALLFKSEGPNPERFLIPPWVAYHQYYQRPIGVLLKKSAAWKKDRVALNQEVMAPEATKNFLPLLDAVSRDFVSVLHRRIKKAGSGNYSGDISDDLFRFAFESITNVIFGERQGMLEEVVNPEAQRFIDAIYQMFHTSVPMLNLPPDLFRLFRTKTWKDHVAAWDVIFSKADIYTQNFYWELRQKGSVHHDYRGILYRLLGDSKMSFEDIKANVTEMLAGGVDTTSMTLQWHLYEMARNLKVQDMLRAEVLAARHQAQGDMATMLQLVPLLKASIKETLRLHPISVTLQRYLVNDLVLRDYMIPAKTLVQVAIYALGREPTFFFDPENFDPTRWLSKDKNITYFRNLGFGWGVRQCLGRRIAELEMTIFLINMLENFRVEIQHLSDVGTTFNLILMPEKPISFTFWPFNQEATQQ
Procedure: The ability of the test compounds to inhibit conversion of cholesterole to pregnenolone and isocaproic acid was measured by modification of isocaproic acid release assay (IARA) described by Ruangwises et. al. (Biology of Reproduction 1991; 45(1):143-50) except that human H295R adrenocortical carcinoma cell line was used as source of enzyme and extraction was done with dextran-coated charcoal suspension (Isomaa, V. et al., Endocrinology 1982; 111(3):833-843). […] To determine the half maximal inhibitory concentration (IC50) of the test compounds on CYP11A1 inhibition, the cells were treated for three days with increasing concentrations of the test compounds in the presence of 3 nM [24,25-3H]-labelled cholesterol (American Radiolabelled Chemicals). The final DMSO concentration was 1%. Cell culture medium was extracted with dextran-coated charcoal suspension and the radiolabelled isocaproic acid was determined by mixing 100 μl of supernatant fraction in 200 μl of scintillation fluid (OptiPhase SuperMix, Perkin Elmer). Radioactivity was measured using a Microbeta scintillation counter (1450 MicroBeta Trilux, Wallac). All the test compounds were studied at 10 concentrations in duplicates.

Structure (SMILES)	IC50 [nM]
CS(=O)(=O)c1ccc(COc2coc(CN3CCc4ccccc4C3)cc2=O)cc1 [Compound 14, 2-((3,4-Dihydroisoquinolin-2(1H)-yl)methyl)-5-((4-(methylsulfonyl)benzyl)oxy)-4H-pyran-4-one]	301 to 2000
CS(=O)(=O)N1CC=C(COc2coc(CN3Cc4ccccc4C3)cc2=O)CC1 [Compound 98, 2-(Isoindolin-2-ylmethyl)-5-((1-(methylsulfonyl)-1,2,3,6-tetrahydropyridin-4-yl)methoxy)-4H-pyran-4-one]	150 to 300
CS(=N)(=O)c1ccc(COc2coc(CN3Cc4ccccc4C3)cc2=O)cc1 (centres unmarked) [Compound 86, 2-(Isoindolin-2-ylmethyl)-5-((4-(S-methylsulfonimidoyl)benzyl)oxy)-4H-pyran-4-one]	150 to 300
O=c1cc(CN2Cc3ccccc3C2)occ1OCc1ccc(S(=O)(=O)C2CC2)cc1 [Compound 72, 5-((4-(Cyclopropylsulfonyl)benzyl)oxy)-2-(isoindolin-2-ylmethyl)-4H-pyran-4-one]	< 150
CS(=O)(=O)c1ccc(COc2coc(CN3Cc4ccccc4C3)cc2=O)c(C(F)(F)F)c1 [Compound 19, 2-(Isoindolin-2-ylmethyl)-5-((4-(methylsulfonyl)-2-(trifluoromethyl)benzyl)oxy)-4H-pyran-4-one]	301 to 2000
CNS(=O)(=O)c1ccc(COc2coc(CN3Cc4ccccc4C3)cc2=O)cc1 [Compound 8, 4-(((6-(Isoindolin-2-ylmethyl)-4-oxo-4H-pyran-3-yl)oxy)methyl)-N-methylbenzenesulfonamide]	< 150
CN(C)C(=O)c1ccc(COc2coc(CN3CCc4cc(F)ccc4C3)cc2=O)cc1 [Compound 124, 4-(((6-((6-Fluoro-3,4-dihydroisoquinolin-2(1H)-yl)methyl)-4-oxo-4H-pyran-3-yl)oxy)methyl)-N,N-dimethylbenzamide]	150 to 300
O=C(NCCCCO)c1ccc(COc2coc(CN3Cc4ccccc4C3)cc2=O)cc1 [Compound 145, N-(4-Hydroxybutyl)-4-(((6-(isoindolin-2-ylmethyl)-4-oxo-4H-pyran-3-yl)oxy)-methyl)benzamide]	301 to 2000
O=c1cc(CN2Cc3ccccc3C2)occ1OCc1ccc(C(F)(F)F)nc1 [Compound 75, 2-(Isoindolin-2-ylmethyl)-5-((6-(trifluoromethyl)pyridin-3-yl)methoxy)-4H-pyran-4-one]	301 to 2000
CS(=N)(=O)c1ccc(COc2coc(CN3CCc4ccccc4C3)cc2=O)cc1 (centres unmarked) [Compound 87, 2-((3,4-Dihydroisoquinolin-2(1H)-yl)methyl)-5-((4-(S-methylsulfonimidoyl)-benzyl)oxy)-4H-pyran-4-one]	301 to 2000
O=C(N1CCC(COc2coc(CN3Cc4ccccc4C3)cc2=O)CC1)C(F)(F)F [Compound 273, 2-(Isoindolin-2-ylmethyl)-5-((1-(2,2,2-trifluoroacetyl)piperidin-4-yl)methoxy)-4H-pyran-4-one]	150 to 300
CS(=O)(=O)C1CCC(COc2coc(CN3Cc4ccccc4C3)cc2=O)CC1 (centres unmarked) [Compound 220, 2-(Isoindolin-2-ylmethyl)-5-((4-(methylsulfonyl)cyclohexyl)methoxy)-4H-pyran-4-one]	150 to 300
N#Cc1ccc(COc2coc(CN3CCc4ccccc4C3)cc2=O)c(F)c1 [Compound 51, 4-(((6-((3,4-Dihydroisoquinolin-2(1H)-yl)methyl)-4-oxo-4H-pyran-3-yl)oxy)-methyl)-3-fluorobenzonitrile]	301 to 2000
CNC(=O)/C=C/c1ccc(COc2coc(CN3CCc4ccccc4C3)cc2=O)cc1 [Compound 148, (E)-3-(4-(((6-((3,4-Dihydroisoquinolin-2(1H)-yl)methyl)-4-oxo-4H-pyran-3-yl)oxy)methyl)phenyl)-N-methylacrylamide]	301 to 2000
CNC(=S)N1CCC(COc2coc(CN3Cc4ccccc4C3)cc2=O)CC1 [Compound 250, 4-(((6-(Isoindolin-2-ylmethyl)-4-oxo-4H-pyran-3-yl)oxy)methyl)-N-methyl-piperidine-1-carbothioamide]	150 to 300
NC(=O)c1ccc(COc2coc(CN3Cc4ccccc4C3)cc2=O)cc1 [Compound 57, 4-(((6-(Isoindolin-2-ylmethyl)-4-oxo-4H-pyran-3-yl)oxy)methyl)benzamide]	301 to 2000

Structure (SMILES)	IC50 [nM]
O=C(c1ccc(COc2coc(CN3CCc4ccccc4C3)cc2=O)cc1)N1CCCC(O)C1 (centres unmarked) [Compound 149, 2-((3,4-Dihydroisoquinolin-2(1H)-yl)methyl)-5-((4-(3-hydroxypiperidine-1-carbonyl)benzyl)oxy)-4H-pyran-4-one]	301 to 2000
CCN=S(C)(=O)c1ccc(COc2coc(CN3Cc4ccccc4C3)cc2=O)cc1 (centres unmarked) [Compound 97, 5-((4-(N-Ethyl-S-methylsulfonimidoyl)benzyl)oxy)-2-(isoindolin-2-ylmethyl)-4H-pyran-4-one]	150 to 300
O=c1cc(CN2Cc3ccc(C(F)(F)F)cc3C2)occ1OCC1CCN(S(=O)(=O)C2COC2)CC1 [Compound 69a, 5-((1-(Oxetan-3-ylsulfonyl)piperidin-4-yl)methoxy)-2-((5-(trifluoromethyl)-isoindolin-2-yl)methyl)-4H-pyran-4-one]	< 150
CC(C)(O)c1ccc(COc2coc(CN3CCc4ccccc4C3)cc2=O)cc1 [Compound 44, 2-((3,4-dihydroisoquinolin-2(1H)-yl)methyl)-5-((4-(2-hydroxypropan-2-yl)-benzyl)oxy)-4H-pyran-4-one]	< 150
O=c1cc(CN2Cc3ccccc3C2)occ1OCC1CCN(S(=O)(=O)C2CC2)CC1 [Compound 187, 5-((1-(Cyclopropylsulfonyl)piperidin-4-yl)methoxy)-2-(isoindolin-2-ylmethyl)-4H-pyran-4-one]	< 150
CCOC(=O)C(=O)N1CCC(COc2coc(CN3Cc4ccccc4C3)cc2=O)CC1 [Compound 269, Ethyl 2-(4-(((6-(isoindolin-2-ylmethyl)-4-oxo-4H-pyran-3-yl)oxy)methyl)-piperidin-1-yl)-2-oxoacetate]	150 to 300
O=C(c1ccc(COc2coc(CN3Cc4ccccc4C3)cc2=O)cc1)N1CCC(O)CC1 [Compound 152, 5-((4-(4-Hydroxypiperidine-1-carbonyl)benzyl)oxy)-2-(isoindolin-2-ylmethyl)-4H-pyran-4-one]	301 to 2000
O=C(N1CCC1)N1CCC(COc2coc(CN3Cc4ccccc4C3)cc2=O)CC1 [Compound 231, 5-((1-(Azetidine-1-carbonyl)piperidin-4-yl)methoxy)-2-(isoindolin-2-ylmethyl)-4H-pyran-4-one]	150 to 300
COc1ccc2c(c1)CCN(Cc1cc(=O)c(OCc3ccc(C(C)(C)O)cc3)co1)C2 [Compound 52, 5-((4-(2-Hydroxypropan-2-yl)benzyl)oxy)-2-((6-methoxy-3,4-dihydroisoquinolin-2(1H)-yl)methyl)-4H-pyran-4-one]	301 to 2000
O=C(C1CCC(COc2coc(CN3Cc4ccccc4C3)cc2=O)CC1)N1CCC1 (centres unmarked) [Compound 234, 5-((4-(Azetidine-1-carbonyl)cyclohexyl)methoxy)-2-(isoindolin-2-ylmethyl)-4H-pyran-4-one]	< 150
CC(C)(C)NC(=O)c1ccc(COc2coc(CN3Cc4ccccc4C3)cc2=O)cc1 [Compound 131, N-(tert-Butyl)-4-(((6-(isoindolin-2-ylmethyl)-4-oxo-4H-pyran-3-yl)oxy)methyl)-benzamide]	< 150
CC(=O)OCC(=O)N1CCC(COc2coc(CN3Cc4ccccc4C3)cc2=O)CC1 [Compound 257, 2-(4-(((6-(Isoindolin-2-ylmethyl)-4-oxo-4H-pyran-3-yl)oxy)methyl)piperidin-1-yl)-2-oxoethyl acetate]	< 150
CN(C)C(=O)c1ccc(COc2coc(CN3Cc4ccccc4C3)cc2=O)c(F)c1 [Compound 61, 3-Fluoro-4-(((6-(isoindolin-2-ylmethyl)-4-oxo-4H-pyran-3-yl)oxy)methyl)-N,N-dimethylbenzamide]	150 to 300
CN(C1CCC(COc2coc(CN3Cc4ccccc4C3)cc2=O)CC1)S(C)(=O)=O (centres unmarked) [Compound 218, N-(4-(((6-(Isoindolin-2-ylmethyl)-4-oxo-4H-pyran-3-yl)oxy)methyl)cyclohexyl)-N-methylmethanesulfonamide]	150 to 300
CC(C)(C)NC(=O)N1CCC(COc2coc(CN3Cc4ccccc4C3)cc2=O)CC1 [Compound 248, N-(tert-Butyl)-4-(((6-(isoindolin-2-ylmethyl)-4-oxo-4H-pyran-3-yl)oxy)-methyl)piperidine-1-carboxamide]	150 to 300
CC(C)(C)OC(=O)N1CCC(COc2coc(CN3Cc4ccccc4C3)cc2=O)C1 (centres unmarked) [Compound 182, tert-Butyl 3-(((6-(isoindolin-2-ylmethyl)-4-oxo-4H-pyran-3-yl)oxy)methyl)-pyrrolidine-1-carboxylate]	301 to 2000
